{
  "source": "patent US10596139B2",
  "about": "(CHASE PHARMACEUTICALS CORPORATION, priority 2015, dated 2020)",
  "key": {"[1]": {"system": "Male Swiss mice", "assay": "T-maze continuous alternation task (T-CAT) with oxybutynin and xanomeline", "type": "in vivo", "text": "Evaluation of Cognition with Oxybutynin and Xanomeline in the T-maze Alternation Task in Mice\nThe T-maze continuous alternation task (T-CAT) is useful as model for studying compounds with cognitive enhancing properties. The T-maze consists of 2 choice arms and 1 start arm mounted to a square center. Manual doors are provided to close specific arms during the force choice alternation task.\nMice were randomly assigned to one of the different experimental treatment groups. Each animal was identified by its group name, cage number, series (day) of experiment, and number (1 to 10) written with permanent ink on the tail.\nThe T-maze apparatus is made of gray Plexiglas with a main stem (55 cm long[…]10 cm wide[…]20 cm high) and two arms (30 cm long[…]10 cm wide[…]20 cm high) positioned at 90 degree angle relative to the main stem. A start box (15 cm long[…]10 cm wide) is separated from the main stem by a guillotine door. Horizontal doors are also provided to close specific arms during the force choice alternation task. […]\nThe percentage of alternation over the 14 free-choice trials was determined for each mouse and was used as an index of working memory performance. […]\nAnalysis of variance (ANOVA) was performed on the results. […] The drug-induced improvement of memory was calculated by setting the respective response of the saline/vehicle as 100% and that of the test group as 0% reversion. […]"}, "[2]": {"system": "Male Swiss mice", "assay": "Antagonism of xanomeline-induced diarrhea in mice by oxybutynin (fecal pellet count)", "type": "in vivo", "conditions": "oxybutynin i.p. 0.3 to 30 mg/kg, 30 minutes before xanomeline 30 mg/kg", "procedure": "Male Swiss mice (4-6 weeks old), N=10 per treatment group were used.\nMice were placed individually in cages without any bedding materials. During the experiment the number of fecal pellets was counted at different time-points as outlined below:\nT0: administration of oxybutinin.\nT30 min: administration of vehicle or xanomeline.\nT 30 min to T 2.5 h: counting of accumulated fecal pellets excreted.\nT+2.5 h to T+4.5 h: counting of accumulated fecal pellets excreted.\nThe total number of fecal pellets for each mouse was counted over time. An analysis of variance (ANOVA) was performed on the results. Fisher's Protected Least Significant Difference was used for pairwise comparisons. The p value≤0.05 were considered significant. Grubbs' test (http//www at graphpad.com/quickcalcs/Grubbs1.cfm) was used to detect outliers for each parameter in each experimental group."}, "[3]": {"system": "patients with Alzheimer disease", "conditions": "cited from earlier work"}, "[4]": {"system": "Male Swiss mice", "assay": "Dose-response to xanomeline in a mouse model of diarrhea (fecal pellet count)", "type": "in vivo", "conditions": "xanomeline i.p. 0.3 to 30 mg/kg", "text": "Study 1—Establishment of the Dose-Response to Xanomeline in a Mouse Model of Diarrhea.\nMale Swiss mice (4-6 weeks old), N=10 per treatment group were used, and treated intra-peritoneally (i.p.) with either vehicle (vehicle group) or increasing doses of xanomeline, a representative muscarinic agonist. Mice were randomly assigned to one of two experimental groups (vehicle; or increasing doses of xanomeline). Each animal was identified by its group name, cage number, series (day) of experiment, and number (1 to 10) written with permanent ink on the tail.\nMice were placed individually in cages without any bedding materials. During the experiment the number of fecal pellets were counted at different time-points, starting one hour before the time of the administration of the test compound (T0), as outlined below:\nT−1 h to T0: counting of the accumulated fecal pellets excreted.\nT0: administration of the test compound.\nT0 to T+2 h: counting of the accumulated fecal pellets excreted.\nT+2 h to T+4 h: counting of the accumulated fecal pellets excreted.\nThe total number of fecal pellets for each mouse was counted over time. An analysis of variance (ANOVA) was performed on the results. Fisher's Protected Least Significant Difference was used for pairwise comparisons; p values≤0.05 were considered significant. […]"}, "[5]": {"system": "healthy volunteers and Alzheimer's patients", "conditions": "cited from earlier work"}},
  "data": [
    {"smiles": "CCN(CC)CC#CCOC(=O)C(O)(c1ccccc1)C1CCCCC1", "note": "(stereo not shown) [oxybutynin, 4-diethylaminobut-2-ynyl 2-cyclohexyl-2-hydroxy-2-phenylethanoate]", "values": [
      {"measurement": "ability to perform the T-maze test after pretreatment", "setting": "[1]; i.p. oxybutynin pretreatment 30 minutes before xanomeline", "result": "restored the animals' ability to perform the T-maze test"},
      {"measurement": "antagonism of diarrhea induced by xanomeline", "setting": "[2]", "result": "dose-dependently antagonized the diarrhea induced by xanomeline"}
    ]},
    {"smiles": "CCCCCCOc1nsnc1C1=CCCN(C)C1", "note": "[xanomeline, 3-(4-hexyloxy-1,2,5-thiadiazol-3-yl)-1-methyl-5,6-dihydro-2H-pyridine]", "values": [
      {"measurement": "ability to perform the T-maze test at the higher dose", "setting": "[1]; i.p. xanomeline, higher dose (dose that caused diarrhea)", "result": "too sick to perform the test"},
      {"measurement": "cognitive and behavioral symptoms of Alzheimer disease", "setting": "[3]; compared to placebo, 6 months", "result": "significantly improve cognitive and behavioral symptoms of Alzheimer disease"},
      {"measurement": "side effects (bradycardia, gastro-intestinal distress, excessive salivation, sweating)", "setting": "[3]; patients with Alzheimer disease", "result": "dose-dependent unacceptable side effects"},
      {"measurement": "diarrhea (number of fecal pellets)", "setting": "[4]", "result": "dose-dependently causes diarrhea"},
      {"measurement": "discontinuation rate", "setting": "[5]; Alzheimer's patient population", "result": "higher than 50%"},
      {"measurement": "dose tolerated by some individuals", "setting": "[5]; oral, taken with food", "result": 110, "unit": "mg three times/day"},
      {"measurement": "maximal tolerated dose", "setting": "[5]; orally administered", "result": 75, "unit": "mg three times/day"},
      {"measurement": "maximal tolerated dose per day", "setting": "[5]; orally administered", "result": 225, "unit": "mg/day"}
    ]}
  ]
}
